Assay results taken from paper PMC6282583 (Chemmedchem, 2018).

Legend:
endothiapepsin [1] = target: T1, endothiapepsin (Cryphonectria parasitica, UniProt P11838); assay: fluorescence-based protease assay adapted from HIV-protease assay; type: biochemical
T1 sequence (P11838 90-419): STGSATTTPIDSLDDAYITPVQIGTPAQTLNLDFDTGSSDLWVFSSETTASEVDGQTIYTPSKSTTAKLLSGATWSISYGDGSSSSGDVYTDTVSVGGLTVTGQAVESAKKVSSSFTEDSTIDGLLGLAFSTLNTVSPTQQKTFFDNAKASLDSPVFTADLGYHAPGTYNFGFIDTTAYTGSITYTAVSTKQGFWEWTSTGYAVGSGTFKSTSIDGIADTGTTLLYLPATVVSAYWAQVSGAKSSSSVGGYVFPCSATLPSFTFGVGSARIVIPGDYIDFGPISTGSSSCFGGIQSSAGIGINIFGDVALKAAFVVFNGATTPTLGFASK

endothiapepsin [2] = target: T1, endothiapepsin; assay: as above; type: biochemical; remark: listed apart in the source

IC50 (endothiapepsin [1]) [µM] | Ki (endothiapepsin [2]) [µM] | SMILES
28.7 ± 4.1 | 13.5 ± 1.9 | Cc1cc(C)c(CCOC(=O)[C@@H](N)Cc2c[nH]c3ccccc23)c(C)c1 [(S)-3]
12.9 ± 0.7 | 6.1 ± 0.4 | Cc1cc(C)c(CCNC(=O)[C@@H](N)Cc2c[nH]c3ccccc23)c(C)c1 [(S)-2]

SMILES | IC50 (endothiapepsin [1]) [µM] | Ki (endothiapepsin [2]) [µM]
Cc1cc(C)c(Cc2csc([C@@H](N)Cc3c[nH]c4ccccc34)n2)c(C)c1 [(S)-4] | 194 ± 11.4 | 91.2 ± 5.4
